In US20230227492A1 (priority 2020, published 2023):
pIC50: −log10 of the molar value. Read-outs that look alike come from different tables or passages of the source.

Key:
[1] = target: T1, rat AR ligand-binding domain tagged with His and GST [AR-LBD (His-GST)] (Rattus norvegicus, UniProt P15207); experiment: AR fluorescence polarization (FP) binding assay; settings: Fluormone AL Green
T1 construct: purchased Life Technologies (Carlsbad, Calif.)
T1 sequence (P15207 651-882 limits assumed): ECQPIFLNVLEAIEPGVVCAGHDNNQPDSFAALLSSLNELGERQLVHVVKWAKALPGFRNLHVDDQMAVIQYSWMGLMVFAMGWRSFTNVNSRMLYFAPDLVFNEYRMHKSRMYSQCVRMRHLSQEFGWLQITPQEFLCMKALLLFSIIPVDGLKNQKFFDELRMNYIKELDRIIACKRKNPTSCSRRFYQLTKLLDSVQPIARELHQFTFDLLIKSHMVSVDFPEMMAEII
Protocol: (§1) Receptor Binding Assay Information—In certain of the following examples, hormone receptor binding assays were used to determine the receptor binding activities of monomeric compound embodiments to androgen (AR), progesterone (PR), estrogen alpha (ERα) or glucocorticoid (GR) receptors. For AR, PR or ERα, the respective receptors are added to novel, tight-binding, selective ligands tagged with a fluorescent molecule, to form a receptor-ligand complex with a high polarization value. This complex is then added to individual monomeric compound embodiments that are contained in well plates. If the monomeric compound binds to the respective receptors, it displaces the fluorescent ligand from the complex, resulting in a low polarization value. In such embodiments, the monomeric compound is characterized as a competitor. […] In such embodiments, the monomeric compound is characterized as a noncompetitor. The shift in polarization value in the presence of the monomeric compound is used to determine the relative affinity of monomeric compound for the receptor.
(§2) For the androgen, progesterone, and estrogen receptor binding assays described herein, the preparation of reagents and test procedures is performed according to the manufacturer's instructions (Life Technologies, Carlsbad, Calif.). The plates are covered to protect the reagents from light and incubated at 20-25° C. for 4-8 hrs.
In this example, AR binding activity and ER binding activity of certain reference compounds and monomeric compound embodiments wherein the R^2 group is not present was assessed (such as to test compound activity after R^2 cleavage). The AR fluorescence polarization (FP) assay was used and provides a sensitive and efficient method for high-throughput screening of potential AR ligands. The kit uses rat AR ligand-binding domain tagged with His and GST [AR-LBD (His-GST)], and a tight-binding, selective fluorescent androgen ligand (Fluormone™ AL Green) in a homogenous mix-and-read assay format. The androgen receptor [AR-LBD (His-GST)] was added to a fluorescent androgen ligand (Fluormone™ AL Green) to form an AR-LBD (His-GST)/Fluormone™ AL Green complex resulting in a high polarization value. This complex was then added to individual compound embodiments in 96-well plates. Competitors displaced the fluorescent Fluormone™ AL Green ligand from the AR-LBD (His-GST)/Fluormone™ AL Green complex, causing the fluorescent ligand to tumble rapidly during its fluorescence lifetime, resulting in a low polarization value. […] The shift in polarization value in the presence of compound embodiments used to determine relative affinity of compound embodiments for AR-LBD (His-GST).

[2] = target: T2, human PR ligand-binding domain tagged with GST [PR-LBD (GST)] (Homo sapiens, UniProt P06401); experiment: PR fluorescence polarization (FP) binding assay; settings: Fluormone PL Green
T2 construct: purchased Life Technologies (Carlsbad, Calif.)
T2 sequence (P06401 679-913 limits assumed): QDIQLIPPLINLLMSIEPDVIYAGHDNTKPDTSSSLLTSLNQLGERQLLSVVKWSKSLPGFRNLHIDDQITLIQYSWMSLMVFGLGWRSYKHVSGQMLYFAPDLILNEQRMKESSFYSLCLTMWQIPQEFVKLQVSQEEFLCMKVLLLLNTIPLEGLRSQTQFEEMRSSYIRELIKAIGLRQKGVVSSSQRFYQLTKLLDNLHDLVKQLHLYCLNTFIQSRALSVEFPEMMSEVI
Protocol: as §1
as §2, with “hrs. The fluorescence polarization of the samples is measured with 485 nm excitation and 530 nm emission interference filters.” for “hrs.”
In this example, PR binding activity was assessed using the PR fluorescence polarization (FP) assay, which provides a sensitive and efficient method for high-throughput screening of potential PR ligands. The kit uses human PR ligand-binding domain tagged with GST [PR-LBD (GST)], and a tight-binding, selective fluorescent progesterone ligand (Fluormone™ PL Green) in a homogenous mix-and-read assay format. Progesterone receptor [PR-LBD (GST)] was added to a fluorescent progesterone ligand (Fluormone™ PL Green) to form a PR-LBD (GST)/Fluormone™ PL Green complex resulting in a high polarization value. This complex was then added to individual compound embodiments in 96-well plates. Competitors displaced the fluorescent Fluormone™ PL Green ligand from the PR-LBD (GST)/Fluormone™ PL Green complex, causing the fluorescent ligand to tumble rapidly during its fluorescence lifetime, resulting in a low polarization value. […] The shift in polarization value in the presence of compound embodiments was used to determine relative affinity of compound embodiments for PR-LBD (GST). The fluorescence polarization of the samples was measured with 485 nm excitation and 530 nm emission interference filters. Results for monomeric compound embodiments wherein the R^2 groups is not present (such as to test compound activity after R^2 cleavage) are provided in Table 4.

[3] = target: T3, human full-length androgen receptor (Homo sapiens, UniProt P10275); experiment: AR Transactivation Assay (MMTV-luciferase, HEC-1-B cells); type: cell-based
T3 sequence (P10275 1-920): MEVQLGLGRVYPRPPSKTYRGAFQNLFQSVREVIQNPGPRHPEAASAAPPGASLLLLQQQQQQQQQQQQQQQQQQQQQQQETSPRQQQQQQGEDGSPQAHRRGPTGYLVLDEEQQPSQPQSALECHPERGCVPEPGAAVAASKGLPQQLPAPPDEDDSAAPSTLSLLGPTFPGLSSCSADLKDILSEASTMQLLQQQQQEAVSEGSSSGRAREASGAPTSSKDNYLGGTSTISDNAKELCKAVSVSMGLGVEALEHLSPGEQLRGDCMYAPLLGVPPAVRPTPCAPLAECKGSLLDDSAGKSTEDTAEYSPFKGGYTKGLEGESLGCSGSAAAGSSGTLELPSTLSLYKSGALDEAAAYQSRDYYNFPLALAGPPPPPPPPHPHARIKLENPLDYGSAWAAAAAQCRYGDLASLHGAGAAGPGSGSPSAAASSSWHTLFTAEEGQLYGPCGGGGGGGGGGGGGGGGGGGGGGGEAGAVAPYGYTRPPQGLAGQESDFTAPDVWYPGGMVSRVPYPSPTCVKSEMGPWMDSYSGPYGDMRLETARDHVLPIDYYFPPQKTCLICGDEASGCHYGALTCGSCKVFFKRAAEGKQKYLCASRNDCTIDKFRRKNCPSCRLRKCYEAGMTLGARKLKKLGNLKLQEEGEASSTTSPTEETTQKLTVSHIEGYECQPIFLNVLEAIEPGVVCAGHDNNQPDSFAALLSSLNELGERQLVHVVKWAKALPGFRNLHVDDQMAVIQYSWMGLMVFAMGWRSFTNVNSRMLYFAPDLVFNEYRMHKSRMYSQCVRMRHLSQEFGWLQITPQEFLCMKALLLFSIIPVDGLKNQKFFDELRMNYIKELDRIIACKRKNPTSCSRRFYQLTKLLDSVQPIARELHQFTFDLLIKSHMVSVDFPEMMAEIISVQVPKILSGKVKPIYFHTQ

[4] = target: T4, full-length, untagged, human estrogen receptors (ERα) (Homo sapiens, UniProt P03372); experiment: ERα fluorescence polarization (FP) binding assay; settings: for IC50: fluorescence polarization, Fluormone ES2, read-out: IC50 (nM) ERα
T4 construct: insect cell-expressed, full-length, untagged, human estrogen receptors; purchased Life Technologies (Carlsbad, Calif.); host or cells: insect cells
Protocol: as §1, §2
For ERα data, the ERα fluorescence polarization (FP) assay was used, which provides a sensitive and efficient method for high-throughput screening of potential ER ligands. The kit uses insect cell-expressed, full-length, untagged, human estrogen receptors and a tight-binding, fluorescent estrogen ligand (Fluormone™ ES2) in a homogenous mix-and-read assay format. ERα was added to a fluorescent estrogen ligand to form an ERα/Fluormone™ ES2 complex. This complex was then added to individual compound embodiments contained in 96-well plates. […] The change in polarization value in the presence of a compound embodiment was used to determine relative affinity of a compound embodiment for ERα.

[5] = human, plasma
castrated weanling rats = settings: rat, in vivo
[6] = tested on: castrated Sprague-Dawley male rats; experiment: Hershberger assay, ventral prostate weights (7α-methyl testosterone); type: in vivo, rat
[7] = target: T5, recombinant human aromatase (Homo sapiens, UniProt P11511); experiment: Aromatization by recombinant human aromatase (CYP19+P450 reductase Supersomes); settings: 10 μM, 37° C.
T5 sequence (P11511 1-503): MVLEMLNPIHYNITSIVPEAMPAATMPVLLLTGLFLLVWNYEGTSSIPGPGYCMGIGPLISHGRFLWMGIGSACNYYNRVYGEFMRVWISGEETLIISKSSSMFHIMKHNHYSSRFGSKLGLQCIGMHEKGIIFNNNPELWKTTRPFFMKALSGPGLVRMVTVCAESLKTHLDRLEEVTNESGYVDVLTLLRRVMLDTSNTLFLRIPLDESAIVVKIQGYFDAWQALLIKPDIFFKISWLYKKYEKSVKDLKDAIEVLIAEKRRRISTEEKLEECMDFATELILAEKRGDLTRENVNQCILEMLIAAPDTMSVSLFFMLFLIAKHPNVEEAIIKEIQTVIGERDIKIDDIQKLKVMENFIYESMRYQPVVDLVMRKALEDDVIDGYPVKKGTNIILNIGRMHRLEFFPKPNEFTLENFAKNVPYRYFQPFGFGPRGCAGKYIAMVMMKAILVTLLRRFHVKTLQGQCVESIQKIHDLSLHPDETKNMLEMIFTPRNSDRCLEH

T4 sequence (P03372 whole entry): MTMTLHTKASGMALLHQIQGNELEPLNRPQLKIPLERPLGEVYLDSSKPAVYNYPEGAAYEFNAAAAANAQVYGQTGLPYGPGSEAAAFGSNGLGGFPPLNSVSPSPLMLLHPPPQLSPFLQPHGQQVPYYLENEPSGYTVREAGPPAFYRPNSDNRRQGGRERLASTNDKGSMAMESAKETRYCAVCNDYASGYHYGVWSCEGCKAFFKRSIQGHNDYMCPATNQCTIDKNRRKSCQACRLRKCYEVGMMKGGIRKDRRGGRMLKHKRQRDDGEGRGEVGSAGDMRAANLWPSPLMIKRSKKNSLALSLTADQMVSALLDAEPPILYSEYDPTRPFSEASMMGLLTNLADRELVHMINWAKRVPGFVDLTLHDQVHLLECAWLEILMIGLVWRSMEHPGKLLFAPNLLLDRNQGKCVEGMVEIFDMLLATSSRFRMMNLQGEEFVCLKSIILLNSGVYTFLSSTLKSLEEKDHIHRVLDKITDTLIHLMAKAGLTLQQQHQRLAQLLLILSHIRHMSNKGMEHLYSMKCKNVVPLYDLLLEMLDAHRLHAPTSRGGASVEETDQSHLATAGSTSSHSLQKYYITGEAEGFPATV

| SMILES | IC50 (nM) AR [1] [nM] | IC50 ([2]; read-out: IC50 (nM) PR binding) [nM] | IC50 [4] [nM] | % remaining at 15 min [7] [%] | % remaining at 30 min [7] [%] | % remaining at 60 min [7] [%] | further results |
| --- | --- | --- | --- | --- | --- | --- | --- |
| CC1Cc2cc(O)ccc2C2CCC3(C)C(O)CCC3C12 (stereo not drawn) [CDB 4915, 7α-methyl estradiol] | 20.1 | 502 | 10.3 | – | – | – | EC50 [3]: 39 nM |
| CC1CC2(C)C(O)CCC2C2C(C)Cc3cc(O)ccc3C12 (stereo not drawn) [CDB 4916, 7α, 11β-dimethyl estradiol] | 17.8 | 165 | 13.8 | – | – | – | EC50 [3]: 3.68 nM |
| CC1CC2(C)C(O)CCC2C2CCc3cc(O)ccc3C12 (stereo not drawn) [CDB 4917, 11β-methyl estradiol] | 12.8 | 120 | 12 | – | – | – | – |
| C[C@@H]1CC2=CC(=O)CC[C@@H]2[C@H]2CC[C@]3(C)[C@@H](O)CC[C@H]3[C@@H]21 [CDB-902, 7-α-methylnortestosterone, reference compound] | – | – | – | – | – | – | Parent molecule % remaining after 24 hours at 37° C. [5]: 100≤ % |
| C[C@@H]1CC2=CC(=O)CCC2C2C1C1CC[C@H](OC(=O)CCCCCCCCCCC(=O)O[C@H]3CCC4C5C(C6CCC(=O)C=C6C[C@H]5C)[C@@H](C)C[C@@]43C)[C@@]1(C)C[C@@H]2C (stereo partly drawn) [CDB-4867] | – | – | – | – | – | – | AUC (Levator ani muscle) (castrated weanling rats): 5059 mg*week; AUC (Ventral Prostate) (castrated weanling rats): 529.5 mg*week; duration of levator ani muscle weight increase (anabolic effects) (castrated weanling rats): sustained until Day 99 (Week 14); duration of ventral prostate weight increase (androgenic effects) (castrated weanling rats): sustained until Day 99 (Week 14); ventral prostate gland weights relative to vehicle (castrated weanling rats): increased; Parent molecule % remaining after 24 hours at 37° C. ([5]; male): 100≤ % |
| CC1CC2(C)C(O)CCC2C2CCC3=CC(=O)CCC3=C12 (stereo not drawn) [CDB-4890, 11β, 4,9 diene-MNT] | 15.5 | 43.5 | 6680 | – | – | – | – |
| C[C@@H]1CC2=CC(=O)CC[C@]2(C)C2CC[C@@]3(C)C(CC[C@@H]3O)C21 (stereo partly drawn) [CDB-4910, 7α-methyl testosterone] | – | – | – | 57.6 | 20.2 | 0.1 | IC50 ([2]; IC50 (nM) PR binding): 395 nM; Ventral Prostate (weight in gram) ([6]; Conc. in mmole 0.7): 0.076 gram; Ventral Prostate (weight in gram) ([6]; Conc. in mmole 2.8): 0.13 gram; Ventral Prostate (weight in gram) ([6]; Conc. in mmole 11.2): 0.14 gram; pIC50 [4]: 5.11 |
| C[C@@H]1CC2CC(=O)CC[C@]2(C)C2CC[C@@]3(C)C(CC[C@@H]3O)C21 (stereo partly drawn) [CDB-4922, 7α-methyldihydro testosterone] | 57.1 | – | – | 66.8 | 38.0 | 10.1 | IC50 ([2]; IC50 (nM) PR binding): 1890 nM; pIC50 [4]: 4.58 |
| C[C@]12CC[C@H]3[C@@H](CCC4=CC(=O)CC[C@@]43C)[C@@H]1CC[C@@H]2O [Testosterone, reference compound] | – | – | – | 31.4 | 0.1 | 0.1 | Ventral Prostate (weight in gram) ([6]; Conc. in mmole 6.9): 0.12 gram |
